# Measured values as given in ChEMBL document CHEMBL6153079, “Discovery of noncovalent diaminopyrimidine-based Inhibitors for glioblastoma via a dual FAK/DNA targeting strategy” (Eur J Med Chem, 2025).
# Active and inactive are the calls of the source. No cut-off for these calls is given here.
# What was measured:
# U-87 MG [1] = assay: Induction of cell cycle arrest in human U-87 MG cells assessed as accumulation of cells at S phase at 2 uM by propidium Iodide staining based flow cytometry analysis (reference value: 9.59%); assay type: functional, U-87MG ATCC
# U-87 MG [2] = assay: Induction of cell cycle arrest in human U-87 MG cells assessed as accumulation of cells at S phase at 0.01 uM by propidium Iodide staining based flow cytometry analysis (reference value: 9.59%); assay type: functional, U-87MG ATCC
# U-87 MG [3] = assay: Induction of apoptosis in human U-87 MG cells assessed as early apoptotic cells at 0.01 uM measured upto 24 hrs by Annexin V-FITC/PI staining based flow cytometry analysis (reference value: 0.45%); assay type: functional, U-87MG ATCC
# U-87 MG [4] = assay: Induction of cell cycle arrest in human U-87 MG cells assessed as accumulation of cells at […] at 0.02 uM by propidium Iodide staining based flow cytometry analysis (reference value: 1.67%); assay type: functional, U-87MG ATCC
# U-87 MG [5] = assay: Induction of apoptosis in human U-87 MG cells assessed as viable cells at 0.2 uM measured upto 24 hrs by Annexin V-FITC/PI staining based flow cytometry analysis (reference value: 98.4%); assay type: functional, U-87MG ATCC; conditions: read-out: Activity
# [6] = Toxicity in BALB/c mouse implanted with human U-87 MG cells assessed as spleen damage at 5 mg/kg, ip administered once daily for 15 days by H and E staining based analysis; assay type: organism-based; conditions: in vivo, 360 h, time 15 day
# U-87 MG [7] = assay: Inhibition of cell migration in human U-87 MG cells assessed as […] in migration distance at 0.1 to 1 uM incubated for 24 to 48 hrs by wound healing assay; assay type: functional, cell-based; conditions: U-87MG ATCC, dose 0.1-1 µM, time lower 24.0 hrs, time upper […]
# U-87 MG [8] = assay: Induction of apoptosis in human U-87 MG cells assessed as necrotic cells at 0.01 uM measured upto 24 hrs by Annexin V-FITC/PI staining based flow cytometry analysis (reference value: 0.62%); assay type: functional, U-87MG ATCC
# U-87 MG [9] = assay: Induction of apoptosis in human U-87 MG cells assessed as necrotic cells at 0.2 uM measured upto 24 hrs by Annexin V-FITC/PI staining based flow cytometry analysis (reference value: 0.62%); assay type: functional, U-87MG ATCC
# U-87 MG [10] = assay: Induction of apoptosis in human U-87 MG cells assessed as […] in cleaved caspase-3 level at 0.05 to 0.8 uM incubated for 24 hrs by Western blot analysis; assay type: functional, cell-based; conditions: U-87MG ATCC, dose 0.05-0.8 µM
# [11] = Toxicity in BALB/c mouse implanted with human U-87 MG cells assessed as tubular epithelial degeneration in renal cortex at 25 mg/kg, ip administered once daily for 15 days by H and E staining based analysis; assay type: organism-based; conditions: in vivo, 360 h, time 15 day
# [12] = Selectivity ratio of IC50 for cytotoxicity against human LO2 assessed as cell viability to IC50 for antiproliferative activity against human U-87 MG assessed as cell viability; assay type: toxicity; conditions: LO2 cells versus U-87 MG cells, read-out: Ratio IC50
# [13] = Selectivity ratio of IC50 for cytotoxicity against human LO2 assessed as cell viability to IC50 for antiproliferative activity against human U-251 assessed as cell viability; assay type: toxicity; conditions: LO2 cells versus U-251 cells, read-out: Ratio IC50
# [14] = Toxicity in BALB/c mouse implanted with human U-87 MG cells assessed as lung damage at 5 mg/kg, ip administered once daily for 15 days by H and E staining based analysis; assay type: organism-based; conditions: in vivo, 360 h, time 15 day
# U-87 MG [15] = assay: Induction of cell cycle arrest in human U-87 MG cells assessed as accumulation of cells at […] at 0.2 uM by propidium Iodide staining based flow cytometry analysis (reference value: 1.67%); assay type: functional, U-87MG ATCC
# U-87 MG [16] = assay: Induction of apoptosis in human U-87 MG cells assessed as early apoptotic cells at 0.02 uM measured upto 24 hrs by Annexin V-FITC/PI staining based flow cytometry analysis (reference value: 0.45%); assay type: functional, U-87MG ATCC
# U-87 MG [17] = assay: Induction of cell cycle arrest in human U-87 MG cells assessed as accumulation of cells at […] at 2 uM by propidium Iodide staining based flow cytometry analysis (reference value: 1.67%); assay type: functional, U-87MG ATCC
# U-87 MG [18] = assay: Induction of cell cycle arrest in human U-87 MG cells assessed as accumulation of cells at G2M phase at 0.2 uM by propidium Iodide staining based flow cytometry analysis (reference value: 9.73%); assay type: functional, U-87MG ATCC
# U-87 MG [19] = assay: Induction of apoptosis in human U-87 MG cells assessed as late apoptotic cells at 0.2 uM measured upto 24 hrs by Annexin V-FITC/PI staining based flow cytometry analysis (reference value: 0.54%); assay type: functional, U-87MG ATCC
# [20] = Distribution coefficient, logD of compound in n-Octanol/water at pH 7.4; assay type: physicochemical
# Focal adhesion kinase 1 = Focal adhesion kinase 1 (Homo sapiens, UniProt Q05397); assay: Inhibition of FAK phosphorylation in human U-87 MG cells at 0.05 uM incubated for 24 hrs by Western blot analysis; assay type: cell-based
# U-87 MG [21] = assay: Induction of cell cycle arrest in human U-87 MG cells assessed as accumulation of cells at S phase at 0.02 uM by propidium Iodide staining based flow cytometry analysis (reference value: 9.59%); assay type: functional, U-87MG ATCC
# U-87 MG [22] = assay: Induction of apoptosis in human U-87 MG cells assessed as late apoptotic cells at 0.02 uM measured upto 24 hrs by Annexin V-FITC/PI staining based flow cytometry analysis (reference value: 0.54%); assay type: functional, U-87MG ATCC
# [23] = Toxicity in BALB/c mouse implanted with human U-87 MG cells assessed as liver damage at 25 mg/kg, ip administered once daily for 15 days by H and E staining based analysis; assay type: organism-based; conditions: in vivo, 360 h, time 15 day
# U-87 MG [24] = assay: Inhibition of colony formation in human U-87 MG cells at 0.005 uM incubated for 14 days and subsequent media replacement with compound for every 3 days by crystal violet staining based analysis; assay type: functional, cell-based; conditions: U-87MG ATCC, time 14.0 day
# U-87 MG [25] = assay: Antiproliferative activity against human U-87 MG assessed as inhibition of cell growth at 0.005 uM by clonogenic assay relative to control; assay type: functional, U-87MG ATCC
# U-87 MG [26] = assay: Antiproliferative activity against human U-87 MG assessed as cell growth inhibition at 0.1 to 2 uM; assay type: functional, cell-based; conditions: U-87MG ATCC
# [27] = Cytotoxicity against human 2BS assessed as cell viability incubated for 48 hrs by MTT assay; assay type: toxicity, cell-based; conditions: 2BS cells
# [28] = Effective permeability of compound at pH 7.4 incubated for 16 hrs by LCMS analysis; assay type: ADME; conditions: pH 7.4, 16 h
# U-87 MG [29] = assay: Induction of apoptosis in human U-87 MG cells assessed as late apoptotic cells at 2 uM measured upto 24 hrs by Annexin V-FITC/PI staining based flow cytometry analysis (reference value: 0.54%); assay type: functional, U-87MG ATCC
# U-87 MG [30] = assay: Inhibition of AKT phosphorylation in human U-87 MG cells at 0.05 uM incubated for 24 hrs by Western blot analysis; assay type: cell-based
# U-87 MG [31] = assay: Induction of apoptosis in human U-87 MG cells assessed as […] in Bcl-xL level at 0.05 to 0.8 uM incubated for 24 hrs by Western blot analysis; assay type: functional, cell-based; conditions: U-87MG ATCC, dose 0.05-0.8 µM
# U-87 MG [32] = assay: Induction of apoptosis in human U-87 MG cells assessed as early apoptotic cells at 0.2 uM measured upto 24 hrs by Annexin V-FITC/PI staining based flow cytometry analysis (reference value: 0.45%); assay type: functional, U-87MG ATCC
# U-87 MG [33] = assay: Antiproliferative activity against human U-87 MG assessed as cell viability incubated for 48 hrs by MTT assay; assay type: functional, cell-based, U-87MG ATCC
# Focal adhesion kinase 1, sequence (Q05397 2-1052 limits assumed): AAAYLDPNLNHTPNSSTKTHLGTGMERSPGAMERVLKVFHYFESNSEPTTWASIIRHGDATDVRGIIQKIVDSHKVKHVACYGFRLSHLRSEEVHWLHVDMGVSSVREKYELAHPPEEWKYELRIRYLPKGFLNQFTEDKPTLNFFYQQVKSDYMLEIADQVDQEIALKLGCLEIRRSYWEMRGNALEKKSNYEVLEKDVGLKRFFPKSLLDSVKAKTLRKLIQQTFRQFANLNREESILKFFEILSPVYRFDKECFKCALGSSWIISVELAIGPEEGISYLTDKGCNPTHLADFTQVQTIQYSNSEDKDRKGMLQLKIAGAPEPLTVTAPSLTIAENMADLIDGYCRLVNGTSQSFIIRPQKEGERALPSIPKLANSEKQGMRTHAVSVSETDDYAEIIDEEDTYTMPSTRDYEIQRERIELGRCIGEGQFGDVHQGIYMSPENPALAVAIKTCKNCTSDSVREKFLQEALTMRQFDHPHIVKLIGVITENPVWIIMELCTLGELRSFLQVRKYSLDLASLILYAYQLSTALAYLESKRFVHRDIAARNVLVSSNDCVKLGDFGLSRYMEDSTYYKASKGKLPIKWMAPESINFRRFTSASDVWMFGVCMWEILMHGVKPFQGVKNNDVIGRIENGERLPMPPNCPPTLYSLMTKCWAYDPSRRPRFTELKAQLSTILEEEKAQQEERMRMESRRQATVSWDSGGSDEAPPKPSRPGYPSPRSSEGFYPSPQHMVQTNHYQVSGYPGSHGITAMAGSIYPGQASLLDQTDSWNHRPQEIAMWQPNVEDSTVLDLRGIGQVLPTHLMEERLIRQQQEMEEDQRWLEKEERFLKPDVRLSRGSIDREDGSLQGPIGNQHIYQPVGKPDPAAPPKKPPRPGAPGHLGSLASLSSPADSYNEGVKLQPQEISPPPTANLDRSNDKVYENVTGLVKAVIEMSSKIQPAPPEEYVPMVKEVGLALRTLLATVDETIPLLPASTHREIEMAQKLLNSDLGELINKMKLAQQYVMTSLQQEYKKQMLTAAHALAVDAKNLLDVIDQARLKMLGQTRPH
compound,measurement,setting,value
CNC(=O)c1ccccc1Nc1nc(Nc2ccc(N3CCN(CCOC(=O)CCCc4ccc(N(CCCl)CCCl)cc4)CC3)cc2)ncc1C(F)(F)F,Activity,U-87 MG [1],10.99%
same,Activity,U-87 MG [2],13.83%
same,Activity,U-87 MG [3],15.8%
same,Activity,U-87 MG [4],1.87%
same,viability at 0.2 µM,U-87 MG [5],63.7%
same,Activity,[6],Non-toxic
same,inhibition,U-87 MG [7],Active
same,Activity,U-87 MG [8],4.83%
same,Activity,U-87 MG [9],2.31%
same,Activity,U-87 MG [10],Active
same,Activity,[11],Non-toxic
same,selectivity ratio,[12],> 40
same,selectivity ratio,[13],> 40
same,Activity,[14],Non-toxic
same,Activity,U-87 MG [15],1.81%
same,Activity,U-87 MG [16],25.9%
same,Activity,U-87 MG [17],1.88%
same,Activity,U-87 MG [18],43.61%
same,Activity,U-87 MG [19],5.65%
same,logD,[20],6.06
same,inhibition,Focal adhesion kinase 1,Active
same,Activity,U-87 MG [21],16.42%
same,Activity,U-87 MG [22],4.8%
same,Activity,[23],Non-toxic
same,inhibition,U-87 MG [24],Active
same,inhibition at 0.005 µM,U-87 MG [25],73%
same,Activity,U-87 MG [26],Active
same,IC50 at 48 h,[27],11.1 µM
same,Peff,[28],0.002 10^-6 cm/s
same,Activity,U-87 MG [29],7.19%
same,inhibition,U-87 MG [30],Active
same,Activity,U-87 MG [31],Active
same,Activity,U-87 MG [32],28.3%
same,IC50,U-87 MG [33],0.015 µM
